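96-well plates; 48 h exposure; 5 concentrations. Endpoints by linear interpolation between flanking doses. Not reached: highest tested concentration assigned. GI50: concentration for 50% inhibition of growth. At the TGI there is no net growth.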 Bounds are passed on as bounds.

One assay relates to SK-MEL-28 melanoma. The assay can be described thus: inhibition of tumour cell growth, NCI panel, 48 h.
On to `CCCN1C(=O)/C(=c2\sc3n(c2=O)C2C(NN=3)N(CC)C(=O)N2CC)c2ccccc21` (stereo not given), for which the GI50 was 1.18 µM and the TGI amounted to 29.1 µM.
Taken in the same sequence, the figures for `CCn1c(-c2nonc2N)nc2cncc(C(=O)N3CCNCC3)c21` were greater than 25 µM and greater than 25 µM.
Taken in the same sequence, the figures for `CCN(CC)CCOc1ccc(C(=C(C)c2ccc(Cl)cc2)c2ccc(OCCN(CC)CC)cc2)cc1` were 0.602 µM and 1.1 µM.
Consider `C[C@]12CC[C@H]3[C@@H](CCC4=CC(=O)CC[C@@H]43)[C@@H]1CC[C@@H]2OC(=O)N(CCCl)N=O`, for which the GI50 was 11.6 µM and the TGI came to 26.1 µM.
Take `CC12CCC(=O)C=C1CCC1C2CCC2(C)C(C(=O)Cn3cnc4c(=S)nc[nH]c43)CCC12` (stereo not given): the TGI is greater than 100 µM.
For `CCOC(=O)c1c2c(n(CC(C)C)c1C)-c1nc[nH]c1C(=O)C2=O`, the GI50 was 19.3 µM and the TGI stood at 33.4 µM.

Another assay relates to OVCAR-8 ovarian. Kind of assay: inhibition of tumour cell growth, NCI panel, 48 h.
Take `CCCN1C(=O)/C(=c2\sc3n(c2=O)C2C(NN=3)N(CC)C(=O)N2CC)c2ccccc21` (stereo not given): the GI50 was 0.688 µM and the TGI worked out at 12.3 µM.
Turning to `CCn1c(-c2nonc2N)nc2cncc(C(=O)N3CCNCC3)c21`, the GI50 is greater than 25 µM and the TGI is greater than 25 µM.
Regarding `CCN(CC)CCOc1ccc(C(=C(C)c2ccc(Cl)cc2)c2ccc(OCCN(CC)CC)cc2)cc1`, the GI50 was 0.731 µM and the TGI came out at 1.77 µM.
In the case of `C[C@]12CC[C@H]3[C@@H](CCC4=CC(=O)CC[C@@H]43)[C@@H]1CC[C@@H]2OC(=O)N(CCCl)N=O`, the GI50 was 5.91 µM and the TGI worked out at 51.9 µM.
In turn, `CC12CCC(=O)C=C1CCC1C2CCC2(C)C(C(=O)Cn3cnc4c(=S)nc[nH]c43)CCC12` (stereo not given) gave a TGI greater than 100 µM.
With `CCOC(=O)c1c2c(n(CC(C)C)c1C)-c1nc[nH]c1C(=O)C2=O`, the GI50 is 15.8 µM and the TGI stood at 29.3 µM.

Another assay concerns SK-MEL-2 melanoma. Kind of assay: inhibition of tumour cell growth, NCI panel, 48 h.
In the case of `CCCN1C(=O)/C(=c2\sc3n(c2=O)C2C(NN=3)N(CC)C(=O)N2CC)c2ccccc21` (stereo not given), the GI50 is 0.799 µM and the TGI was 15.4 µM.
Turning to `CCn1c(-c2nonc2N)nc2cncc(C(=O)N3CCNCC3)c21`, the GI50 was greater than 25 µM and the TGI is greater than 25 µM.
Turning to `CCN(CC)CCOc1ccc(C(=C(C)c2ccc(Cl)cc2)c2ccc(OCCN(CC)CC)cc2)cc1`, the GI50 was 0.661 µM and the TGI is 1.32 µM.
Taken in the same sequence, the figures for `C[C@]12CC[C@H]3[C@@H](CCC4=CC(=O)CC[C@@H]43)[C@@H]1CC[C@@H]2OC(=O)N(CCCl)N=O` were 3.07 µM and 28.6 µM.
In turn, `CC12CCC(=O)C=C1CCC1C2CCC2(C)C(C(=O)Cn3cnc4c(=S)nc[nH]c43)CCC12` (stereo not given) yielded a TGI greater than 100 µM.
For the compound `CCOC(=O)c1c2c(n(CC(C)C)c1C)-c1nc[nH]c1C(=O)C2=O`, the GI50 was 19.4 µM and the TGI was 34 µM.

For another assay, the system named is COLO 205 colon. Kind of assay: inhibition of tumour cell growth, NCI panel, 48 h.
Consider `CCCN1C(=O)/C(=c2\sc3n(c2=O)C2C(NN=3)N(CC)C(=O)N2CC)c2ccccc21` (stereo not given), for which the GI50 was 0.665 µM and the TGI stood at 10.4 µM.
Turning to `CCn1c(-c2nonc2N)nc2cncc(C(=O)N3CCNCC3)c21`, the GI50 is greater than 25 µM and the TGI was greater than 25 µM.
As to `CCN(CC)CCOc1ccc(C(=C(C)c2ccc(Cl)cc2)c2ccc(OCCN(CC)CC)cc2)cc1`, the GI50 was 0.581 µM and the TGI was determined as 1.16 µM.
Taken in the same sequence, the figures for `C[C@]12CC[C@H]3[C@@H](CCC4=CC(=O)CC[C@@H]43)[C@@H]1CC[C@@H]2OC(=O)N(CCCl)N=O` were 3.1 µM and 20 µM.
Consider `CC12CCC(=O)C=C1CCC1C2CCC2(C)C(C(=O)Cn3cnc4c(=S)nc[nH]c43)CCC12` (stereo not given), for which the TGI was greater than 100 µM.
With `CCOC(=O)c1c2c(n(CC(C)C)c1C)-c1nc[nH]c1C(=O)C2=O`, the GI50 was 18 µM and the TGI stood at 32.3 µM.

A further assay has as its system MDA-MB-231 breast. Kind of assay: inhibition of tumour cell growth, NCI panel, 48 h.
For `CCCN1C(=O)/C(=c2\sc3n(c2=O)C2C(NN=3)N(CC)C(=O)N2CC)c2ccccc21` (stereo not given), the GI50 was 1.41 µM and the TGI came to 12.4 µM.
Taken in the same sequence, the figures for `CCn1c(-c2nonc2N)nc2cncc(C(=O)N3CCNCC3)c21` were greater than 25 µM and greater than 25 µM.
Taken in the same sequence, the figures for `CCN(CC)CCOc1ccc(C(=C(C)c2ccc(Cl)cc2)c2ccc(OCCN(CC)CC)cc2)cc1` were 0.581 µM and 1.12 µM.
In the case of `C[C@]12CC[C@H]3[C@@H](CCC4=CC(=O)CC[C@@H]43)[C@@H]1CC[C@@H]2OC(=O)N(CCCl)N=O`, the GI50 was 14.2 µM and the TGI was 37.9 µM.
For the compound `CC12CCC(=O)C=C1CCC1C2CCC2(C)C(C(=O)Cn3cnc4c(=S)nc[nH]c43)CCC12` (stereo not given), the TGI is greater than 100 µM.
On to `CCOC(=O)c1c2c(n(CC(C)C)c1C)-c1nc[nH]c1C(=O)C2=O`, for which the GI50 was 6.85 µM and the TGI turned out to be 20.1 µM.

For another assay, the system named is OVCAR-3 ovarian. The assay can be described thus: inhibition of tumour cell growth, NCI panel, 48 h.
With `CCCN1C(=O)/C(=c2\sc3n(c2=O)C2C(NN=3)N(CC)C(=O)N2CC)c2ccccc21` (stereo not given), the GI50 was 0.289 µM and the TGI was found to be 0.8 µM.
Taken in the same sequence, the figures for `CCn1c(-c2nonc2N)nc2cncc(C(=O)N3CCNCC3)c21` were greater than 25 µM and greater than 25 µM.
Taken in the same sequence, the figures for `CCN(CC)CCOc1ccc(C(=C(C)c2ccc(Cl)cc2)c2ccc(OCCN(CC)CC)cc2)cc1` were 0.643 µM and 1.36 µM.
Taken in the same sequence, the figures for `C[C@]12CC[C@H]3[C@@H](CCC4=CC(=O)CC[C@@H]43)[C@@H]1CC[C@@H]2OC(=O)N(CCCl)N=O` were 7.83 µM and 21.8 µM.
Take `CC12CCC(=O)C=C1CCC1C2CCC2(C)C(C(=O)Cn3cnc4c(=S)nc[nH]c43)CCC12` (stereo not given): the TGI amounted to 49.6 µM.
Turning to `CCOC(=O)c1c2c(n(CC(C)C)c1C)-c1nc[nH]c1C(=O)C2=O`, the GI50 is 13 µM and the TGI worked out at 26.3 µM.

The test system of a further assay is SNB-19 CNS. Kind of assay: inhibition of tumour cell growth, NCI panel, 48 h.
For `CCCN1C(=O)/C(=c2\sc3n(c2=O)C2C(NN=3)N(CC)C(=O)N2CC)c2ccccc21` (stereo not given), the GI50 is 0.765 µM and the TGI is 23.8 µM.
Taken in the same sequence, the figures for `CCn1c(-c2nonc2N)nc2cncc(C(=O)N3CCNCC3)c21` were greater than 25 µM and greater than 25 µM.
Turning to `CCN(CC)CCOc1ccc(C(=C(C)c2ccc(Cl)cc2)c2ccc(OCCN(CC)CC)cc2)cc1`, the GI50 was 0.699 µM and the TGI turned out to be 1.56 µM.
Taken in the same sequence, the figures for `C[C@]12CC[C@H]3[C@@H](CCC4=CC(=O)CC[C@@H]43)[C@@H]1CC[C@@H]2OC(=O)N(CCCl)N=O` were 0.265 µM and 24.3 µM.
Regarding `CC12CCC(=O)C=C1CCC1C2CCC2(C)C(C(=O)Cn3cnc4c(=S)nc[nH]c43)CCC12` (stereo not given), the TGI was 73.8 µM.
In the case of `CCOC(=O)c1c2c(n(CC(C)C)c1C)-c1nc[nH]c1C(=O)C2=O`, the GI50 was 16.4 µM and the TGI turned out to be 30.1 µM.

A further assay deals with HCT-15 colon. The assay can be described thus: inhibition of tumour cell growth, NCI panel, 48 h.
Take `CCCN1C(=O)/C(=c2\sc3n(c2=O)C2C(NN=3)N(CC)C(=O)N2CC)c2ccccc21` (stereo not given): the GI50 was 0.416 µM and the TGI is greater than 52.4 µM.
As for `CCn1c(-c2nonc2N)nc2cncc(C(=O)N3CCNCC3)c21`, the GI50 is greater than 25 µM and the TGI was greater than 25 µM.
As for `CCN(CC)CCOc1ccc(C(=C(C)c2ccc(Cl)cc2)c2ccc(OCCN(CC)CC)cc2)cc1`, the GI50 is 0.556 µM and the TGI was found to be 1.08 µM.
Taken in the same sequence, the figures for `C[C@]12CC[C@H]3[C@@H](CCC4=CC(=O)CC[C@@H]43)[C@@H]1CC[C@@H]2OC(=O)N(CCCl)N=O` were 8.45 µM and 31.3 µM.
On to `CC12CCC(=O)C=C1CCC1C2CCC2(C)C(C(=O)Cn3cnc4c(=S)nc[nH]c43)CCC12` (stereo not given), for which the TGI was greater than 100 µM.
For `CCOC(=O)c1c2c(n(CC(C)C)c1C)-c1nc[nH]c1C(=O)C2=O`, the GI50 was 14.7 µM and the TGI came out at 27.9 µM.

Another assay concerns SN12C renal. Kind of assay: inhibition of tumour cell growth, NCI panel, 48 h.
As for `CCCN1C(=O)/C(=c2\sc3n(c2=O)C2C(NN=3)N(CC)C(=O)N2CC)c2ccccc21` (stereo not given), the GI50 is 1.26 µM and the TGI is 20.1 µM.
Taken in the same sequence, the figures for `CCn1c(-c2nonc2N)nc2cncc(C(=O)N3CCNCC3)c21` were greater than 25 µM and greater than 25 µM.
Taken in the same sequence, the figures for `CCN(CC)CCOc1ccc(C(=C(C)c2ccc(Cl)cc2)c2ccc(OCCN(CC)CC)cc2)cc1` were 1.19 µM and 2.88 µM.
Taken in the same sequence, the figures for `C[C@]12CC[C@H]3[C@@H](CCC4=CC(=O)CC[C@@H]43)[C@@H]1CC[C@@H]2OC(=O)N(CCCl)N=O` were 1.69 µM and 21.4 µM.
`CC12CCC(=O)C=C1CCC1C2CCC2(C)C(C(=O)Cn3cnc4c(=S)nc[nH]c43)CCC12` (stereo not given) registered a TGI greater than 100 µM.
As to `CCOC(=O)c1c2c(n(CC(C)C)c1C)-c1nc[nH]c1C(=O)C2=O`, the GI50 is 13.4 µM and the TGI came to 26.2 µM.

The next assay deals with MDA-MB-435. Kind of assay: inhibition of tumour cell growth, NCI panel, 48 h.
For `CCCN1C(=O)/C(=c2\sc3n(c2=O)C2C(NN=3)N(CC)C(=O)N2CC)c2ccccc21` (stereo not given), the GI50 is 0.196 µM and the TGI came to 0.445 µM.
Taken in the same sequence, the figures for `CCn1c(-c2nonc2N)nc2cncc(C(=O)N3CCNCC3)c21` were greater than 25 µM and greater than 25 µM.
Taken in the same sequence, the figures for `CCN(CC)CCOc1ccc(C(=C(C)c2ccc(Cl)cc2)c2ccc(OCCN(CC)CC)cc2)cc1` were 0.558 µM and 1.02 µM.
For the compound `C[C@]12CC[C@H]3[C@@H](CCC4=CC(=O)CC[C@@H]43)[C@@H]1CC[C@@H]2OC(=O)N(CCCl)N=O`, the GI50 was 3.54 µM and the TGI came out at 32.5 µM.
For `CC12CCC(=O)C=C1CCC1C2CCC2(C)C(C(=O)Cn3cnc4c(=S)nc[nH]c43)CCC12` (stereo not given), the TGI was 96.4 µM.
As for `CCOC(=O)c1c2c(n(CC(C)C)c1C)-c1nc[nH]c1C(=O)C2=O`, the GI50 was 18.2 µM and the TGI came out at 32.6 µM.

The values are drawn from PubChem BioAssay (NCI).
